These results are taken from patent US5051417A, “Indolythiadiazines for treating heart failure” (Les Laboratoires Beecham S.A., priority 1988, dated 1991).

This experiment relates to canine cardiac myofibrillar Ca++-dependent Mg++-ATPase. The experiment is described as follows: Measurement of myofibrillar Ca++-dependent Mg++-ATPase activity on canine cardiac myofibrils. The class given is biochemical. The note with it: pH 7.0, 21° C.; for max (percent change of maximal ATPase activity): pCa=5.47. On the procedure:
1. Measurement of myofibrillar Ca++-dependent Mq++-ATPase activity The effect on myofibrillar Ca++sensitivity and on maximal activity of myofibrillar Ca++-dependent Mg++-ATPase was determined on canine cardiac myofibrils. (a) Contractile protein preparation Cardiac myofibrils free of membrane contaminants were prepared from left ventricular tissue of dog hearts using a modification of the method described by SOLARO et al, Biochem. Biophys. Acta, 245, 259-262, (1971). Before centrifugation, the heart homogenate was filtered through gauze. After Triton X-100 treatments, the myofibrillar fraction was washed once by resuspension and centrifugation in 10 volumes of 1 mM EGTA, […], 30 mM imidazole, 2 mM MgCl2, pH 7.0. The pellet was then washed three times in 10 volumes of the same buffer without EGTA. Before the last centrifugation, the suspension of myofibrils was filtered through a stainless steel sieve with 0.25 mm meshes. Myofibrils were kept in pellet overnight. Before use, the pellet was suspended in a small amount of buffer, the protein concentration was determined by the method of BRADFORD M., Anal. Biochem., 1976, 72, 248 and adjusted in order to have a concentration between 6 and 7 mg/ml. (b) Myofibrillar ATPase activity Ca++-dependent myfibrillar ATPase activity was determined at 21° C., pH 7.0, by measuring the rate of release of inorganic phosphate. All assays were performed within 24hrs. of final purification, using the method described by SOLARO and […]., 51. 290-4,(1982). Reaction mixtures (4 ml) containing 0.6-0.7 mg/ml myofibrillar protein, 80mM KCl, 20 mM imidazole, 3 mM MgCl2, 1 mM EGTA, the desired amount of CaCl2, and the indicated concentration of drug or appropriate vehicle were preincubated for 6 min. prior to assay. The amount of CaCl2 was varied between 0 and 0.9 mM and the pCa (-log free Ca++) computed using 2.514×10^6 M^-1 as the apparent affinity of Ca++for EGTA at pH 7.0. Reactions were initiated by the addition of Na2 ATP to final concentration of 2 mM. After an incubation period of 12 min., reactions were quenched by the addition of an equal volume of ice-cold 10% trichloroacetic acid. The protein was pelleted by centrifugation (2000 g, 15 min.) and Pi was assayed in the supernatant fraction using a modification of the method described by LANZETTA et al, Anal. Biochem., 100, 95-97, (1979). The following solutions were prepared: (1) 3.7% ammonium heptamolybdate in 0.12 N H2 SO4 (2) 0.074% malachite green oxalate in 1% polyvinylic alcohol. The colour reagent was prepared by mixing an equal volume of solution (1) and (2) 15 min. before the assay. For the assay, 1,700 μl of 1% H2 SO4 and 1 ml of colour reagent were added to 100 μl of sample. Colour development occurred at room temperature for 30 min. and was quenched by the addition of 200 μl of 1M tri-potassium citrate. The absorbance was measured at 620 millimicrons. The effect of each compound, tested at the indicated concentration, on the relation between pCa and percent activation was determined taking 100% for the maximum ATPase activity obrained with vehicle alone. The effect on Ca++sensitivity was quantified by measuring the shift of the pCa giving 50% of the maximal control ATPase activity. The effect on maximal ATPase activity was expressed as the percent change of ATPase activity for pCa=5.47. Mean effects on myofibrillar ATPase activity were obtained from 1 to 5 preparations, (compounds tested at 2×10^-4 M).

For `COC(=O)NN=C1C(=O)Nc2ccc(C3=NNC(=O)SC3C)cc21` (stereo not drawn) [Example 15, Methyl 2-[2,3-dihydro-5-(3,6-dihydro-6-methyl-2-oxo-2H -1,3,4-thiadiazin-5-yl)-2-oxo-1H-indol-3-ylidene]hydrazine carboxylate], under “30 μM”, the “max (percent change of maximal ATPase activity)” value is on record as 2 ± 4% and the “pCa (shift of the pCa giving 50% of the maximal control ATPase activity; Ca++ sensitivity)” value was “+0.08 ± 0.04”.

For `CC1SC(=O)NN=C1c1ccc2c(c1)C(=Cc1ccccc1[N+](=O)[O-])C(=O)N2` (stereo not drawn) [Example 16, 1,3-Dihydro-5-(3,6-dihydro-6-methyl-2-oxo-2H-1,3,4-thiadiazin-5-yl)-3-(2-nitrophenylmethylene)-2H-indol-2-one], for the setting “30 μM”, the “max (percent change of maximal ATPase activity)” value stood at 1 ± 4% and the “pCa (shift of the pCa giving 50% of the maximal control ATPase activity; Ca++ sensitivity)” value was “+0.17 ± 0.03”.

With `CC1SC(=O)NN=C1c1ccc2c(c1)C(=Cc1cccnc1)C(=O)N2` (stereo not drawn) [Example 19, 1,3-Dihydro-5-(3,6-dihydro-6-methyl-2-oxo-2H-1,3,4-thiadiazin-5-yl)-3-(3-pyridylmethylene)-2H-indol-2-one], where the note is “30 μM”, the “max (percent change of maximal ATPase activity)” value was -14 ± 7% and the “pCa (shift of the pCa giving 50% of the maximal control ATPase activity; Ca++ sensitivity)” value was “+0.23 ± 0.06”.

In the case of `CC1SC(=O)NN=C1c1ccc2c(c1)C(=Cc1ccccn1)C(=O)N2` (stereo not drawn) [Example 20, 1,3-Dihydro-5-(3,6-dihydro-6-methyl-2-oxo-2H-1,3,4-thiadiazin-5-yl)-3-(2-pyridylmethylene)-2H-indol-2-one], under “30 μM”, the “max (percent change of maximal ATPase activity)” value is -13 ± 5% and the “pCa (shift of the pCa giving 50% of the maximal control ATPase activity; Ca++ sensitivity)” value is “+0.19 ± 0.08”.

In the case of `Cc1ccc(NN=C2C(=O)Nc3ccc(C4=NNC(=O)SC4C)cc32)cc1` (stereo not drawn) [Example 21, 5-(3,6-Dihydro-6-methyl-2-oxo-2H-1,3,4-thiadiazin-5-yl) -1H-indole-2,3-dione 3-[(4-methyl)phenylhydrazone]], where the note is “10 μM”, the “max (percent change of maximal ATPase activity)” value came to 41 ± 2% and the “pCa (shift of the pCa giving 50% of the maximal control ATPase activity; Ca++ sensitivity)” value is reported as 1.07 ± 0.02. Moreover, where the note is “30 μM”, the “max (percent change of maximal ATPase activity)” value is on record as -42 ± 7% and the “pCa (shift of the pCa giving 50% of the maximal control ATPase activity; Ca++ sensitivity)” value is reported as “+1.30 ± 0.00”.

On to `CC1SC(=O)NN=C1c1ccc2c(c1)C(=NNCc1ccccc1)C(=O)N2` (stereo not drawn) [Example 22, 5-(3,6-Dihydro-6-methyl-2-oxo-2H-1,3,4-thiadiazin-5-yl) -1H-indole-2,3-dione 3-[(phenylmethyl)hydrazone]], for which, where the note is “30 μM”, the “max (percent change of maximal ATPase activity)” value turned out to be 21 ± 4% and the “pCa (shift of the pCa giving 50% of the maximal control ATPase activity; Ca++ sensitivity)” value is given as “+0.64 ± 0.1”.

Turning to `CCOC(=O)CON=C1C(=O)Nc2ccc(C3=NNC(=O)SC3C)cc21` (stereo not drawn) [Example 23, Ethyl[[[2,3-dihydro-5-(3,6-dihydro-6-methyl-2-oxo-2H -1,3,4-thiadiazin-5-yl)-2-oxo-1H-indol-3-ylidene]amino]oxy]lacetate], under “30 μM”, the “max (percent change of maximal ATPase activity)” value was determined as 8 ± 6% and the “pCa (shift of the pCa giving 50% of the maximal control ATPase activity; Ca++ sensitivity)” value is “+0.05 ± 0.02”.

For `CC1SC(=O)NN=C1c1ccc2c(c1)C(=NNc1ccc(C(C)(C)C)cc1)C(=O)N2` (stereo not drawn) [Example 24, 5-(3,6-Dihydro-6-methyl-2-oxo-2H-1,3,4-thiadiazin-5-yl) -1H-indole-2,3-dione 3-[4-(1,1-dimethylethyl)phenylhydrazone]], where the note is “30 μM”, the “max (percent change of maximal ATPase activity)” value is listed as -2 ± 5% and the “pCa (shift of the pCa giving 50% of the maximal control ATPase activity; Ca++ sensitivity)” value is “+0.49 ± 0.06”.

As to `CC1SC(=O)NN=C1c1ccc2c(c1)C(=NNC1CCCCC1)C(=O)N2` (stereo not drawn) [Example 25, 5-(3,6-Dihydro-6-methyl-2-oxo-2H-1,3,4-thiadiazin-5-yl) -1H-indole-2,3-dione 3-(cyclohexylhydrazone)], where the note is “30 μM”, the “max (percent change of maximal ATPase activity)” value was determined as 22 ± 3% and the “pCa (shift of the pCa giving 50% of the maximal control ATPase activity; Ca++ sensitivity)” value is “+0.49 ± 0.06”.

Regarding `CC1SC(=O)NN=C1c1ccc2c(c1)C(=NN(C)c1ccccc1)C(=O)N2` (stereo not drawn) [Example 26, 5-(3,6-Dihydro-6-methyl-2-oxo-2H-1,3,4-thiadiazin-5-yl) -1H-indole-2,3-dione 3-(methylphenylhydrazone)], for the setting “30 μM”, the “max (percent change of maximal ATPase activity)” value is recorded as 17 ± 2% and the “pCa (shift of the pCa giving 50% of the maximal control ATPase activity; Ca++ sensitivity)” value is reported as “+0.65 ± 0.05”.

As for `CC1SC(=O)NN=C1c1ccc2c(c1)C(=NNc1ccc(Cl)c(Cl)c1)C(=O)N2` (stereo not drawn) [Example 27, 5-(3,6-Dihydro-6-methyl-2-oxo-2H-1,3,4-thiadiazin-5-yl) -1H-indole-2,3-dione 3-(3,4-dichloroohenyl)hydrazone], where the note is “30 μM”, the “max (percent change of maximal ATPase activity)” value is listed as -1 ± 0% and the “pCa (shift of the pCa giving 50% of the maximal control ATPase activity; Ca++ sensitivity)” value is “+0.05 ± 0.03”.

In the case of `COc1ccc(NN=C2C(=O)Nc3ccc(C4=NNC(=O)SC4C)cc32)cc1` (stereo not drawn) [Example 28, 5-(3,6-Dihydro-6-methyl-2-oxo-2H-1,3,4-thiadiazin-5-yl) -1H-indole-2,3-dione 3-[(4-methoxy)phenylhydrazone]], under “30 μM”, the “max (percent change of maximal ATPase activity)” value amounted to 20 ± 5% and the “pCa (shift of the pCa giving 50% of the maximal control ATPase activity; Ca++ sensitivity)” value is recorded as “+0.94 ± 0.05”.

Consider `CC1SC(=O)NN=C1c1ccc2c(c1)C(=NNc1ccc(Cl)cc1)C(=O)N2` (stereo not drawn) [Example 29, 5-(3,6-Dihydro-6-methyl-2-oxo-2H-1,3,4-thiadiazin-5-yl) -1H-indole-2,3-dione 3-[(4-chloro)phenylhydrazone]], for which, under “30 μM”, the “max (percent change of maximal ATPase activity)” value turned out to be 25 ± 4% and the “pCa (shift of the pCa giving 50% of the maximal control ATPase activity; Ca++ sensitivity)” value is reported as “+0.78 ± 0.1”.

In the case of `CC1SC(=O)NN=C1c1ccc2c(c1)C(=NNc1ccc(F)cc1)C(=O)N2` (stereo not drawn) [Example 30], under “30 μM”, the “max (percent change of maximal ATPase activity)” value stood at 28 ± 6% and the “pCa (shift of the pCa giving 50% of the maximal control ATPase activity; Ca++ sensitivity)” value is listed as “+1.01 ± 0.07”.

As for `CC1SC(=O)NN=C1c1ccc2c(c1)C(=NNc1c(F)c(F)c(F)c(F)c1F)C(=O)N2` (stereo not drawn) [Example 32, 5-(3,6-Dihydro-6-methyl-2-oxo-2H-1,3,4-thiadiazin-5-yl) -1H-indole-2,3-dione 3-(pentafluorophenylhydrazone)], under “30 μM”, the “max (percent change of maximal ATPase activity)” value is recorded as -1 ± 7% and the “pCa (shift of the pCa giving 50% of the maximal control ATPase activity; Ca++ sensitivity)” value was “+0.10 ± 0.04”.

Consider `CC#N.CC1SC(=O)NN=C1c1ccc2c(c1)C(=NNc1ccc(S(C)(=O)=O)cc1)C(=O)N2` (stereo not drawn) [Example 33], for which, under “30 μM”, the “max (percent change of maximal ATPase activity)” value is recorded as 3 ± 1% and the “pCa (shift of the pCa giving 50% of the maximal control ATPase activity; Ca++ sensitivity)” value is “+0.37 ± 0.05”.

As to `CC1SC(=O)NN=C1c1ccc2c(c1)C(=NNc1ccc(C(=O)O)cc1)C(=O)N2` (stereo not drawn) [Example 34], for the setting “30 μM”, the “max (percent change of maximal ATPase activity)” value worked out at 5 ± 2% and the “pCa (shift of the pCa giving 50% of the maximal control ATPase activity; Ca++ sensitivity)” value was “+0.40 ± 0.02”.

Regarding `CC1SC(=O)NN=C1c1ccc2c(c1)C(=NNc1ccccn1)C(=O)N2.Cl` (stereo not drawn) [Example 35, 5-(3,6-Dihydro-6-methyl-2-oxo-2H-1,3,4-thiadiazin-5-yl)-1H-indole-2,3-dione 3-(2-pyridylhydrazone) monohydrochloride], for the setting “30 μM”, the “max (percent change of maximal ATPase activity)” value was found to be 0 ± 1% and the “pCa (shift of the pCa giving 50% of the maximal control ATPase activity; Ca++ sensitivity)” value was “+0.05 ± 0.06”.

Take `CC1SC(=O)NN=C1c1ccc2c(c1)C(=NNc1cccnc1)C(=O)N2` (stereo not drawn) [Example 36, 5-(3,6-Dihydro-6-methyl-2-oxo-2H-1,3,4-thiadiazin-5-yl) -1H-indole-2,3-dione 3-(3-pyridylhydrazone)]: under “30 μM”, the “max (percent change of maximal ATPase activity)” value was 24 ± 5% and the “pCa (shift of the pCa giving 50% of the maximal control ATPase activity; Ca++ sensitivity)” value is “+0.92 ± 0.06”.

Regarding `CC1SC(=O)NN=C1c1ccc2c(c1)C(=NNC(=O)c1ccccn1)C(=O)N2` (stereo not drawn) [Example 37], for the setting “30 μM”, the “max (percent change of maximal ATPase activity)” value was -9 ± 1% and the “pCa (shift of the pCa giving 50% of the maximal control ATPase activity; Ca++ sensitivity)” value is on record as “+0.14 ± 0.03”.
